Experimental data as given in PMC3542538 (Journal of medicinal chemistry, 2012).
Entries after “also recorded” stand apart in the source; their conditions may differ. Where a name gives a salt, the structure may show the parent alone.

Key:
recombinant Tdp1 = recombinant Tdp1 (Homo sapiens, UniProt Q9NUW8); assay type: biochemical
[1] = system: single-stranded DNA substrate; assay: Surface plasmon resonance binding to single-stranded DNA substrate; conditions: SPR
[2] = system: all human cancer cell lines successfully tested; assay: cells; conditions: read-out: MGM (mean graph midpoint GI50)
recombinant human Top1 = biological target: T1, recombinant human Top1 (Homo sapiens, UniProt P11387); assay: Topoisomerase I-mediated DNA cleavage reactions; assay type: biochemical; conditions: 100 μM
T1 sequence (P11387 1-765): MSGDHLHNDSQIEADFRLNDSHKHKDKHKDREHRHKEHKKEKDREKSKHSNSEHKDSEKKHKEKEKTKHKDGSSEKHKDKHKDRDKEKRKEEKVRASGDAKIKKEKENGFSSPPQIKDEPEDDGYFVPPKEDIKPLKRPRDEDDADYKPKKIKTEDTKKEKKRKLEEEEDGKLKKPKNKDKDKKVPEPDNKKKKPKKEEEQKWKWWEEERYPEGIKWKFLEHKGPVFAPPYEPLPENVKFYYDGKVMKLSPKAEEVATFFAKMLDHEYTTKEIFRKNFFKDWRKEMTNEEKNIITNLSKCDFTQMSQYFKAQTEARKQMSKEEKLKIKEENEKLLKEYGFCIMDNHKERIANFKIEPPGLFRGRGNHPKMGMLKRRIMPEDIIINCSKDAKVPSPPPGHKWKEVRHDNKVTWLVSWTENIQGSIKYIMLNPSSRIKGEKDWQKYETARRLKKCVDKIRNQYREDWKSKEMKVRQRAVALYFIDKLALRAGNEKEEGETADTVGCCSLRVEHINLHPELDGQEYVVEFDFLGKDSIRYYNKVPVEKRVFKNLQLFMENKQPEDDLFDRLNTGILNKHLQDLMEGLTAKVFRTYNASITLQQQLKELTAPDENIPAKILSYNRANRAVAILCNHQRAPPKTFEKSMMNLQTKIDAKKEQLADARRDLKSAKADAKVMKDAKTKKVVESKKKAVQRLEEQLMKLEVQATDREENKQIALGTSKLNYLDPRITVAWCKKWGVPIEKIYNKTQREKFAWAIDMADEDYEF

Sequence of recombinant Tdp1 (Q9NUW8 whole entry): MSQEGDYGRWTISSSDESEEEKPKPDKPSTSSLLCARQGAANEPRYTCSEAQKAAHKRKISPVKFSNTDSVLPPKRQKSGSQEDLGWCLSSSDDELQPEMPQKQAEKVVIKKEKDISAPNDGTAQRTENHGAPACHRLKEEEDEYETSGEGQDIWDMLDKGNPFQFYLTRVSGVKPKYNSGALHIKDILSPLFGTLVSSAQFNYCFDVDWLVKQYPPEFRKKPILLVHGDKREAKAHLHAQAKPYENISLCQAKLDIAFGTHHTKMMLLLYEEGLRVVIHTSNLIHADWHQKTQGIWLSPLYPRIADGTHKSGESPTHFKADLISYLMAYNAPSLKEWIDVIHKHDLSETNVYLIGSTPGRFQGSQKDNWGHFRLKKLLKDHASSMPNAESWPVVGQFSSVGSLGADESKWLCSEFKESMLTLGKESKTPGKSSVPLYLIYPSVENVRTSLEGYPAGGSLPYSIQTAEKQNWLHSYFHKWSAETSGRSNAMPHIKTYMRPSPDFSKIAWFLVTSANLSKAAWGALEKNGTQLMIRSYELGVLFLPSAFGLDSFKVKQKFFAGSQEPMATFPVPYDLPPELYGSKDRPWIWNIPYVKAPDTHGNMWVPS

Row | Structure (SMILES) | Tdp1 inhibitory activity (in words) (recombinant Tdp1) | GI50 [2] [nM] | further results
1 | COC(=O)C(=O)Nc1ccc2c3c(n(C)c(=O)c2c1)-c1ccccc1C3=O [Compound 9, Methyl 2-[(6-Methyl-5,11-dioxo-6,11-dihydro-5H-indeno[1,2-c]isoquinolin-3-yl)amino]-2-oxoacetate] | inactive |  | 
2 | Cn1c2c(c3ccc(NC(=O)C(=O)O)cc3c1=O)C(=O)c1ccccc1-2 [Compound 14] |  |  | binding to the single-stranded DNA substrate [1]: did not bind
3 | Cn1c2c(c3ccc(NC(=O)CC(=O)O)cc3c1=O)C(=O)c1ccccc1-2 [Compound 15, 3-[(6-Methyl-5,11-dioxo-6,11-dihydro-5H-indeno[1,2-c]isoquinolin-3-yl)amino]-3-oxopropanoic Acid] | inactive |  | 
4 | COC(=O)C(=O)Nc1ccc2c3c(n(CCCN)c(=O)c2c1)-c1ccccc1C3=O [Compound 22, Methyl 2-[(6-(3-Aminopropyl)-5,11-dioxo-6,11-dihydro-5H-indeno[1,2-c]isoquinolin-3-yl)amino]-2-oxoacetate] |  | 1860 ± 380 | 
5 | COC(=O)CC(=O)Nc1ccc2c3c(n(CCCN)c(=O)c2c1)-c1ccccc1C3=O [Compound 23, Methyl 3-[(6-(3-Aminopropyl)-5,11-dioxo-6,11-dihydro-5H-indeno[1,2-c]isoquinolin-3-yl)amino]-3-oxopropanoate] |  | 1860 | 
6 | COC(=O)CCCC(=O)Nc1ccc2c3c(n(CCCN)c(=O)c2c1)-c1ccccc1C3=O [Compound 25, Methyl 5-[(6-(3-Aminopropyl)-5,11-dioxo-6,11-dihydro-5H-indeno[1,2-c]isoquinolin-3-yl)amino]-5-oxopentanoate] |  | 1090 | 
7 | CC(C)(C)OC(=O)NCCCn1c2c(c3ccc(NC(=O)CCC(=O)O)cc3c1=O)C(=O)c1ccccc1-2 [Compound 29, 4-[(6-(3-((tert-Butoxycarbonyl)amino)propyl)-5,11-dioxo-6,11-dihydro-5H-indeno[1,2-c]isoquinolin-3-yl)amino]-4-oxobutanoic Acid] | weakly active |  | 
8 | CC(C)(C)OC(=O)NCCCn1c2c(c3ccc(NC(=O)CCCC(=O)O)cc3c1=O)C(=O)c1ccccc1-2 [Compound 30, 5-[(6-(3-((tert-Butoxycarbonyl)amino)propyl)-5,11-dioxo-6,11-dihydro-5H-indeno[1,2-c]isoquinolin-3-yl)amino]-5-oxopentanoic Acid] | inactive |  | 
9 | CC(C)(C)OC(=O)NCCCn1c2c(c3ccc(NC(=O)CCCCC(=O)O)cc3c1=O)C(=O)c1ccccc1-2 [Compound 31, 6-[(6-(3-((tert-Butoxycarbonyl)amino)propyl)-5,11-dioxo-6,11-dihydro-5H-indeno[1,2-c]isoquinolin-3-yl)amino]-6-oxohexanoic Acid] | weakly active |  | 
10 | CCOC(=O)CNc1ccc2c3c(n(C)c(=O)c2c1)-c1ccccc1C3=O [Compound 38, Ethyl 2-[(6-Methyl-5,11-dioxo-6,11-dihydro-5H-indeno[1,2-c]isoquinolin-3-yl)amino]acetate] | inactivity; also recorded: inactive |  | 
11 | CCOC(=O)CNc1ccc2c3c(n(CCCN)c(=O)c2c1)-c1ccccc1C3=O.Cl [Compound 40, Ethyl 2-[(6-(3-Aminopropyl)-5,11-dioxo-6,11-dihydro-5H-indeno[1,2-c]isoquinolin-3-yl)amino]acetate Hydrochloride] | active |  | 
12 | Cn1c2c(c3ccc(NCC(=O)O)cc3c1=O)C(=O)c1ccccc1-2 [Compound 41, 2-[(6-Methyl-5,11-dioxo-6,11-dihydro-5H-indeno[1,2-c]isoquinolin-3-yl)amino]acetic Acid] | inactivity; also recorded: inactive |  | 
13 | CC(C)(C)OC(=O)NCCCn1c2c(c3ccc(NCC(=O)O)cc3c1=O)C(=O)c1ccccc1-2 [Compound 42, 2-((6-(3-((tert-Butoxycarbonyl)amino)propyl)-5,11-dioxo-6,11-dihydro-5H-indeno[1,2-c]isoquinolin-3-yl)amino)acetic Acid] | inactivity |  | 
14 | NCCCn1c2c(c3ccc(NCC(=O)O)cc3c1=O)C(=O)c1ccccc1-2 [Compound 43, 2-((6-(3-Aminopropyl)-5,11-dioxo-6,11-dihydro-5H-indeno[1,2-c]isoquinolin-3-yl)amino)acetic Acid Hydrochloride] |  | 870 ± 14 | 
15 | COc1ccc2c(c1)-c1c(c3ccc([N+](=O)[O-])cc3c(=O)n1CCCBr)C2=O [Compound 49, 6-(3-Bromopropyl)-5,6-dihydro-8-methoxy-3-nitro-5,11-dioxo-11H-indeno[1,2-c]isoquinoline] | very weak or inactive |  | 
16 | COc1ccc2c(c1)-c1c(c3ccc([N+](=O)[O-])cc3c(=O)n1CCCN=[N+]=[N-])C2=O [Compound 50, 6-(3-Azidopropyl)-5,6-dihydro-8-methoxy-3-nitro-5,11-dioxo-11H-indeno[1,2-c]isoquinoline] | very weak or inactive |  | 
17 | COc1ccc2c(c1)-c1c(c3ccc([N+](=O)[O-])cc3c(=O)n1CCCN)C2=O [Compound 51, 6-(3-Aminopropyl)-5,6-dihydro-8-methoxy-3-nitro-5,11-dioxo-11H-indeno[1,2-c]isoquinoline Hydrochloride] |  | 170 ± 17 | 
18 | COc1ccc2c(c1)-c1c(c3ccc([N+](=O)[O-])cc3c(=O)n1CCCn1ccnc1)C2=O [Compound 52, 6-(3-(1H-Imidazol-1-yl)propyl)-8-methoxy-3-nitro-5H-indeno[1,2-c]isoquinoline-5,11(6H)-dione] | very weak or inactive | 20 ± 0.6 | suppression of Top1-mediated DNA cleavage at high drug concentration (recombinant human Top1): slight suppression; also recorded: does not
19 | COc1ccc2c(c1)-c1c(c3ccc([N+](=O)[O-])cc3c(=O)n1CCCN1CCOCC1)C2=O [Compound 53, 8-Methoxy-6-(3-morpholinopropyl)-3-nitro-5H-indeno[1,2-c]isoquinoline-5,11(6H)-dione] | very weak or inactive |  | 
20 | COc1ccc2c(c1)C(=O)c1c-2n(CCCN)c(=O)c2cc([N+](=O)[O-])ccc12 [Compound 54] |  | 20 ± 0.8 | 
21 | NCCCn1c2c(c3ccc(N)cc3c1=O)C(=O)c1ccccc1-2 [Compound 62] |  | 160 | 
22 | O=C1c2ccccc2-c2c1c1ccc([N+](=O)[O-])cc1c(=O)n2CCCO [Compound 63] |  | 890 ± 220 | 
23 | CN(C)CCCn1c2c(c3ccc(C#N)cc3c1=O)C(=O)c1ccccc1-2 [Compound 74] |  | 300 ± 14 | 
24 | COc1ccc2c(c1)C(=O)c1c-2n(CCCN)c(=O)c2cc(I)ccc12 [Compound 84, 6-(3-Aminopropyl)-5,6-dihydro-9-methoxy-3-iodo-5,11-dioxo-11H-indeno[1,2-c]isoquinoline] |  | 250 ± 4 | 
25 | COc1ccc2c(c1)C(=O)c1c-2n(CCCN(C)C)c(=O)c2cc(I)ccc12 [Compound 85, 3-Iodo-9-methoxy-6-(3-(Dimethylamino)propyl)-5H-indeno[1,2-c]isoquinoline-5,11(6H)-dione] |  |  | suppression of Top1-mediated DNA cleavage at high drug concentration (recombinant human Top1): complete suppression; also recorded: suppress
26 | COc1ccc2c(c1)C(=O)c1c-2n(CCCN)c(=O)c2cc(N)ccc12 [Compound 89, 3-Amino-6-(3-aminopropyl)-5,6-dihydro-9-methoxy-5,11-dioxo-11H-indeno[1,2-c]isoquinoline Dihydrochloride] |  | 40 | 
